Source: patent US8772005B2, “Laccases, compositions and methods of use” (Danisco US Inc., priority 2006, dated 2014)

System: Thielavia sp. laccase
Experiment: Bleaching of solubilized indigo by laccase/mediator combinations, 96-well microtitre plate, absorbance at 600 nm
Type: biochemical
Procedure: An assay for the bleaching of the solubilized indigo substrate by laccase/mediator combinations was performed in a 96-well microtitre plate as follows
A saturated solution of indigo in N-methylpyrrolidone (NMP) was prepared by stirring indigo (30 mg) in NMP (10 ml) at room temperature for 5 hours. The NMP solution was diluted 10-fold into an aqueous buffer solution resulting in a blue solution. For example, dilution into 50 mM sodium acetate buffer at pH 5, or 50 mM sodium phosphate buffer at pH 7. Solutions were shaken well immediately before use.
The assay for the bleaching of the solubilized indigo substrate was performed in a 96-well microtitre plate whereby each well received the soluble indigo solution in 50 mM sodium acetate buffer at pH 5 (180 uL), laccase (10 ppm enzyme) and mediator solution (from a 20 mM stock solution in methanol). The total volume of each well was adjusted to 200 uL with deionzed water. A control containing laccase only was run in duplicate. The plate was sealed and incubated at 50° C. for 2 hours at 800 rpm on a heated agitator (Thermomixer, Eppendorf). Following this period, the plates were unsealed and a solution of ascorbic acid (20 uL of a 10% aqueous solution) added to each well in order to reduce the oxidized forms of the mediators. The extent of indigo bleaching was then assessed by determining the absorbance for each well at 600 nm using a microtitre plate reader. The lower the absorbance reading, the greater the extent of indigo bleaching.
Laccases derived from Myceliophtora (Denilite® II, Novozymes, Bagsvaerd, Denmark), Thielavia (Ecostone LCC10, AB enzymes, Darmstadt, Germany) and Cerrena sp. were assessed for their ability to bleach solubilized indigo in conjunction with low molecular weight mediators at two pH values.

Row | Structure (SMILES) | effectiveness of mediator for indigo bleaching (in words) (mediator concentration 50 uM) | effectiveness of mediator for indigo bleaching (in words) (mediator concentration 500 uM)
1 | CCn1c(=NN=c2sc3cc(S(=O)(=O)O)ccc3n2CC)sc2cc(S(=O)(=O)O)ccc21 [ABTS] | most effective mediator | most effective mediator
2 | COc1cc(C(=O)O)cc(OC)c1O [Syringic acid, syringic acid] | bleached soluble indigo no more effectively than the control condition | –
